The source of these data is patent publication US20200115357A1, “LIVER X RECEPTORS (LXR) MODULATORS” (Phenex-FXR GmbH, priority 2017, published 2020).

Where two headings read alike, the source gives them in different places.

Data set [1] has as its target T1, GST-LXRβ ligand-binding domain (Homo sapiens, UniProt P55055, DUP175-175).
T1 construct: amino acids 156-461; NP009052; made in house; host or cells: E. coli
T1 sequence (P55055 with tags, fused parts or gaps DUP175-175): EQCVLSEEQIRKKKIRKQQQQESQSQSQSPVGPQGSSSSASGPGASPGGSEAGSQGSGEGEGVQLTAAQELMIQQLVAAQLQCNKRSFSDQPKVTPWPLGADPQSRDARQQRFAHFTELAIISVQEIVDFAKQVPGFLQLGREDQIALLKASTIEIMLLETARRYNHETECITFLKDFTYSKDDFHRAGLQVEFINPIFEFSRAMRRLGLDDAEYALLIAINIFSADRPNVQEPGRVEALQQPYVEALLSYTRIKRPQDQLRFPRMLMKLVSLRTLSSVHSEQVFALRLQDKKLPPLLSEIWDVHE
As to the kind of experiment: TR-FRETβ activity assay (LXRβ-LBD / NCoA3 coactivator peptide, prestimulated with 24(S)-25-epoxycholesterol). The format is biochemical. Further details: key to behavior in FRET assay: ag=agonist; ia=inverse agonist. The conditions noted are these: for EC50: 1 μM 24(S)-25-epoxycholesterol as prestimulating agonist, read-out: FRETβ activity range (EC50); for behavior in FRET assay: agonist or inverse agonist. Put shortly:
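E. coli-expressed GST-LXRβ LBD (aa 156-461) at 76 nM with biotinylated NCoA3 coactivator peptide (400 nM), in 240 mM KCl, BSA and Triton-X-100. Anti-GST-Tb cryptate/streptavidin-XL665 TR-FRET after 1 h equilibration at 4 °C, excitation 340 nm, emission 615 and 665 nm. Run in triplicate.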

Data set [2] concerns the target T2, LXRα ligand-binding domain (LBD) (Homo sapiens, UniProt Q13133).
T2 construct: expressed in transfected cells; host or cells: HEK293
T2 sequence (Q13133 155-447): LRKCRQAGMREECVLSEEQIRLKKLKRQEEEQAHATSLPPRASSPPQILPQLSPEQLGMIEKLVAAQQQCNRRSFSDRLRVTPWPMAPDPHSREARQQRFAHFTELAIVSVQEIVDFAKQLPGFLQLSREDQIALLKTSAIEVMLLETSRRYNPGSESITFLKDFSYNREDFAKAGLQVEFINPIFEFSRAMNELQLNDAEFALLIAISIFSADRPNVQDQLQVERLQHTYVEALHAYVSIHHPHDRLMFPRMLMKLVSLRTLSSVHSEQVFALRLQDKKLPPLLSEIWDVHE
As to the kind of experiment: LXR Gal4 reporter transient transfection assay (M2H), Gal4α LBD. Particulars: HEK293 cells; read-out: M2H Gal4α LBD activity range (EC50). The format is cell-based. The protocol: (§1) The tested compounds were usually dissolved, tested and stored as 20 mM stock solutions in DMSO. Since sulfonyl acetic acid derivatives tend to decarboxylate under these conditions, these stock solutions were prepared, tested and stored as 20 mM DMSO stock solutions containing 100 mM trifluoroacetic acid (5 equivalents). Sulfonyl acetic acid derivatives are shelf stable as solid at rt for long time as reported by Griesbrecht et al. (Synlett 2010:374) or Faucher et al. (J. Med. Chem. 2004; 47:18).
(§2) LXR Gal4 Reporter Transient Transfection Assays
(§3) LXRα and LXRβ activity status was determined via detection of interaction with coactivator and corepressor proteins in mammalian two-hybrid experiments (M2H). For this, via transient transfection the full length (FL) proteins of LXRα (amino acids 1-447; NP005684; SEQ ID NO:7) or LXRβ-(amino acids 1-461; NP009052; SEQ ID NO:8) or the ligand-binding domains (LBD) of LXRα (amino acids 155-447 SEQ ID NO:3) or LXRβ (amino acids 156-461; SEQ ID NO:4) were expressed from pCMV-AD (Stratagene) as fusions to the transcriptional activation domain of NFkB. As cofactors, domains of either the steroid receptor coactivator 1 (SRC1; amino acids 552-887; SEQ ID NO:5) or of the corepressor NCoR (amino acids 1903-2312 SEQ ID NO:6) were expressed as fusions to the DNA binding domain of the yeast transcription factor GAL4 (from pCMV-BD; Stratagene). Interaction was monitored via activation of a coexpressed Firefly Luciferase Reporter gene under control of a promoter containing repetitive GAL4 response elements (vector pFRLuc; Stratagene). Transfection efficiency was controlled via cotransfection of constitutively active pRL-CMV Renilla reniformis luciferase reporter (Promega). HEK293 cells were grown in minimum essential medium (MEM) with 2 mM L-glutamine and Earle's balanced salt solution supplemented with 8.3% fetal bovine serum, 0.1 mM non-essential amino acids, 1 mM sodium pyruvate, at 37° C. in 5% CO2. 3.5×10^4 cells/well were plated in 96-well cell culture plates in growth medium supplemented with 8.3% fetal bovine serum for 16-20 h to ˜90% confluency. For transfection, medium was taken off and LXR and cofactor expressing plasmids as well as the reporter plasmids are added in 30 μL OPTIMEM/well including polyethylene-imine (PEI) as vehicle. Typical amounts of plasmids transfected/well: pCMV-AD-LXR (5 ng), pCMV-BD-cofactor (5 ng), pFR-Luc (100 ng), pRL-CMV (0.5 ng). Compound stocks were prepared in DMSO, prediluted in MEM to a total volume of 120 μL, and added 4 h after addition of the transfection mixture (final vehicle concentration not exceeding 0.2%). Cells were incubated for additional 16 h, lysed for 10 min in 1× Passive Lysis Buffer (Promega) and Firefly and Renilla luciferase activities were measured sequentially in the same cell extract using buffers containing D-luciferine and coelenterazine, respectively. Measurements of luminescence were done in a BMG-Iuminometer.

In data set [3] the target is T3, LXRβ ligand-binding domain (LBD) (Homo sapiens, UniProt P55055, DUP175-175).
T3 construct: LXRβ (amino acids 156-461); expressed in transfected cells; host or cells: HEK293
T3 sequence (P55055 with tags, fused parts or gaps DUP175-175): T1 sequence (P55055 with tags, fused parts or gaps DUP175-175)
The data set can be described thus: LXR Gal4 reporter transient transfection assay (M2H), Gal4β LBD. The format is cell-based. The conditions noted are these: HEK293 cells; read-out: M2H Gal4β LBD activity range (EC50). The protocol: as §1, §2, §3

For data set [4] the following is noted: rat liver microsomes; cited from earlier work. Background: Liver microsomes are vesicles of endoplasmic reticulum, rich in cytochrome P450 enzymes.
Data set [5] is described as follows: Pharmacokinetics in mice, blood and liver exposure via LC-MS. Format: in vivo. Particulars: for oral bioavailability (in words): mice, oral administration; for blood exposure, 4 h / liver exposure, 4 h: po, Dose (mg) 20, C57BL/6J mice, 4 h after administration. The protocol: The pharmacokinetics of different sulfonamides was assessed in mice after single dosing and oral and intraperitoneal administrations. Blood and liver exposure was measured via LC-MS.
The study design was as follows:
Animals: C57BL/6J (Janvier) males
Diet: standard rodent chow
Vehicle for i.p. injection: 0.5% HPMC (w:v) in water, injection volume: <5 mL/kg
Animal handling: animals were withdrawn from food at least 12 h before administration
Design: single dose oral and bid ip administration, n=3 animals per group
Sacrifice: at t=4 h after administration
Bioanalytics: LC-MS of liver and blood samples

The conditions of data set [6]: human liver microsomes; cited from earlier work.
The test system of data set [7] is LXR. The conditions noted are these: acid formed by ester cleavage of SR9238; cited from earlier work.

A word on the EC50: it is the concentration at which the effect is half-maximal.

Regarding `COc1cc(-c2ccc(CO)c(C(C)(C)C(=O)[O-])c2)ccc1CN(Cc1ccc(C(F)(F)F)o1)S(=O)(=O)c1c(C)ccc2ccccc12.[Na+]` [Example 23, Sodium 2-(4-(hydroxymethyl)-3′-methoxy-4′-(((2-methyl-N-((5-(trifluoromethyl)furan-2-yl)methyl)naphthalene)-1-sulfonamido)methyl)-[1,1′-biphenyl]-3-yl)-2-methylpropanoate], the figures for the EC50 in data set [1], in data set [2] and in data set [3] were 100 to 1000 nM, less than 100 nM and less than 100 nM, respectively. The “behavior in FRET assay” value in data set [1] is on record as “ia”.
Take `Cc1cc(C)c(S(=O)(=O)N(Cc2ccc(-c3cccc(CCC(=O)O)c3)cc2)Cc2ccc(C(F)(F)F)o2)c(C)c1` [Example 25, 3-(4′-(((2,4,6-Trimethyl-N-((5-(trifluoromethyl)furan-2-yl)methyl)phenyl)sulfonamido)methyl)-[1,1′-biphenyl]-3-yl)propanoic acid]: the EC50 was 100 to 1000 nM in data set [1], 100 to 1000 nM in data set [2] and less than 100 nM in data set [3]. Also, in data set [1], the “behavior in FRET assay” value was “ia”.
In the case of `Cc1cc(C)c(S(=O)(=O)N(Cc2ccc(-c3cccc(S(=O)(=O)NCC(=O)O)c3)cc2)Cc2ccc(C(F)(F)F)o2)c(C)c1` [Example 25/1], the EC50 in data set [1], in data set [2] and in data set [3] was 1000 to 10000 nM each time. Also, the “behavior in FRET assay” value in data set [1] was “ia”.
As for `Cc1cc(C)c(S(=O)(=O)N(Cc2ccc(-c3cccc(C(=O)O)c3)cc2)Cc2ccc(C(F)(F)F)o2)c(C)c1` [Example C6, 4′-(((2,4,6-Trimethyl-N-((5-(trifluoromethyl)furan-2-yl)methyl)phenyl)sulfonamido)methyl)-[1,1′-biphenyl]-3-carboxylic acid], the EC50 is more than 10000 nM in data set [1], 1000 to 10000 nM in data set [2] and 100 to 1000 nM in data set [3]. Besides, the “behavior in FRET assay” value in data set [1] is on record as “ia”.
In the same order, the values of `Cc1cc(C)c(S(=O)(=O)N(Cc2ccc(-c3cccc(Cc4nn[nH]n4)c3)cc2)Cc2ccc(C(F)(F)F)o2)c(C)c1` [Example C7, N-((3′-((2H-Tetrazol-5-yl)methyl)-[1,1′-biphenyl]-4-yl)methyl)-2,4,6-trimethyl-N-((5-(trifluoro-methyl)furan-2-yl)methyl)benzenesulfonamide] are 1000 to 10000 nM, 100 to 1000 nM, 100 to 1000 nM and “ia”.
Regarding `Cc1cc(C)c(S(=O)(=O)N(Cc2ccc(-c3cccc(S(C)(=O)=O)c3)cc2)Cc2ccc(C(F)(F)F)o2)c(C)c1` [GSK2033, reference compound], the “clearance (Clint)” value in data set [4] is more than 1.0 mL/min/mg prot. In data set [5], the “oral bioavailability (in words)” value is reported as “not orally bioavailable”; the “blood exposure, 4 h” value is recorded as “(14.4 ng/mL)”; the “liver exposure, 4 h” value is “(9.6 ng/mL)”. The “clearance (Clint)” value in data set [6] is on record as more than 1.0 mL/min/mg prot.
As to `CCOC(=O)c1ccc(CN(Cc2ccc(-c3cccc(S(C)(=O)=O)c3)cc2)S(=O)(=O)c2c(C)cc(C)cc2C)o1` [SR9238, reference compound], in data set [5], the “oral bioavailability (in words)” value is “not orally bioavailable”; the “blood exposure, 4 h” value is “po: below LLOQ”; the “liver exposure, 4 h” value is reported as “po: below LLOQ”.
As to `Cc1cc(C)c(S(=O)(=O)N(Cc2ccc(-c3cccc(S(C)(=O)=O)c3)cc2)Cc2ccc(C(=O)O)o2)c(C)c1` [SR10389], the “activity on LXR (in words)” value in data set [7] is “inactive”.
